Tests used:
[1] = refractive index (Na D-line) (dimensionless); conditions: 101.33 kPa, Liquid, Standard Abbe refractometry
[2] = Liquid; for speed of sound: Sing-around technique in a fixed-path interferometer; for mass density: Vibrating tube method; for viscosity: Capillary tube (Ostwald / Ubbelohde) method
[3] = refractive index (Na D-line) (dimensionless); xn = mol fraction of the nth substance listed; conditions: 298.15 K, 101 kPa, Liquid, Standard Abbe refractometry
[4] = xn = mol fraction of the nth substance listed; conditions: 298.15 K, 101 kPa, Liquid; for speed of sound: Sing-around technique in a fixed-path interferometer; for mass density: Vibrating tube method

CCCn1cc[n+](C)c1.O=S(=O)([N-]S(=O)(=O)C(F)(F)F)C(F)(F)F
[1]
Conditions | refractive index
293.15 K | 1.42669
298.15 K | 1.42525
303.15 K | 1.42378
308.15 K | 1.42224
313.15 K | 1.42076
318.15 K | 1.41926
323.15 K | 1.41776
328.15 K | 1.41625
333.15 K | 1.41479
338.15 K | 1.41334
343.15 K | 1.41185

[2], 101.33 kPa
Conditions | mass density [kg/m3] | speed of sound [m/s] | viscosity [mPa·s]
293.15 K | 1479.39 | 1243 | –
298.15 K | 1474.44 | 1232 | 43.7
303.15 K | 1469.5 | 1221 | 35.68
308.15 K | 1464.58 | 1210 | 29.51
313.15 K | 1459.67 | 1199 | 24.77
318.15 K | 1454.78 | 1188 | 21.01
323.15 K | 1449.91 | 1178 | 18.04
328.15 K | 1445.06 | 1168 | 15.59
333.15 K | 1440.23 | 1157 | 13.63
338.15 K | 1435.42 | 1147 | 12.02
343.15 K | 1430.62 | 1137 | 10.66

CCCn1cc[n+](C)c1.O=S(=O)([N-]S(=O)(=O)C(F)(F)F)C(F)(F)F + CC(C)O
Conditions | mass density, [4] [kg/m3] | refractive index, [3] | speed of sound, [4] [m/s]
x2 = 0 | 1474.44 | 1.42525 | 1232
x2 = 0.0493 | 1463.7 | 1.42452 | 1228
x2 = 0.0921 | 1454.1 | 1.42385 | 1226
x2 = 0.291 | 1401.23 | 1.42016 | 1212
x2 = 0.4093 | 1360.46 | 1.41732 | 1202
x2 = 0.5071 | 1318.46 | 1.41439 | 1191
x2 = 0.6113 | 1262.2 | 1.41043 | 1178
x2 = 0.6964 | 1203.91 | 1.40624 | 1166
x2 = 0.803 | 1106.76 | 1.39926 | 1148
x2 = 0.9009 | 979.02 | 1.39013 | 1135
x2 = 0.9503 | 892.06 | 1.38375 | 1134

CCCn1cc[n+](C)c1.O=S(=O)([N-]S(=O)(=O)C(F)(F)F)C(F)(F)F + CCCO
Conditions | mass density, [4] [kg/m3] | refractive index, [3] | speed of sound, [4] [m/s]
x2 = 0 | 1474.44 | 1.42525 | 1232
x2 = 0.0787 | 1457.82 | 1.42424 | 1228
x2 = 0.1022 | 1452.69 | 1.42391 | 1227
x2 = 0.247 | 1417.04 | 1.42164 | 1220
x2 = 0.39 | 1372.22 | 1.41887 | 1212
x2 = 0.442 | 1352.74 | 1.41758 | 1208
x2 = 0.4877 | 1333.71 | 1.41661 | 1205
x2 = 0.569 | 1294.62 | 1.41422 | 1198
x2 = 0.6455 | 1250.12 | 1.41148 | 1191
x2 = 0.703 | 1209.58 | 1.40897 | 1187
x2 = 0.75 | 1170.92 | 1.40667 | 1183
x2 = 0.8048 | 1117.65 | 1.40345 | 1179
x2 = 0.8492 | 1066.16 | 1.40025 | 1178

CCCn1cc[n+](C)c1.O=S(=O)([N-]S(=O)(=O)C(F)(F)F)C(F)(F)F + CCO
Conditions | mass density, [4] [kg/m3] | refractive index, [3] | speed of sound, [4] [m/s]
x2 = 0 | 1474.44 | 1.42525 | 1232
x2 = 0.053 | 1465.87 | 1.42443 | 1230
x2 = 0.099 | 1458.19 | 1.42378 | 1227
x2 = 0.1914 | 1441.04 | 1.42214 | 1223
x2 = 0.2948 | 1418.06 | 1.42008 | 1216
x2 = 0.3909 | 1391.82 | 1.41788 | 1209
x2 = 0.4992 | 1354.59 | 1.41421 | 1200
x2 = 0.5912 | 1313.64 | 1.41045 | 1190
x2 = 0.6978 | 1249.77 | 1.4045 | 1176
x2 = 0.7938 | 1167.28 | 1.39689 | 1162
x2 = 0.895 | 1033.88 | 1.38426 | 1146
x2 = 0.9431 | 940.65 | 1.37524 | 1142

CCCn1cc[n+](C)c1.O=S(=O)([N-]S(=O)(=O)C(F)(F)F)C(F)(F)F + CO
Conditions | mass density, [4] [kg/m3] | refractive index, [3] | speed of sound, [4] [m/s]
x2 = 0 | 1474.44 | 1.42525 | 1232
x2 = 0.099 | 1463.12 | 1.4237 | 1228
x2 = 0.2012 | 1449.69 | 1.42185 | 1223
x2 = 0.2973 | 1434.29 | 1.41964 | 1218
x2 = 0.4068 | 1411.9 | 1.41652 | 1211
x2 = 0.5067 | 1385.1 | 1.41274 | 1203
x2 = 0.601 | 1351.31 | 1.40806 | 1192
x2 = 0.6936 | 1305.17 | 1.40193 | 1179
x2 = 0.7948 | 1228.8 | 1.39113 | 1159
x2 = 0.9009 | 1085.51 | 1.37097 | 1129
x2 = 0.9499 | 972.1 | 1.35417 | 1115

CCO [ethanol]
Conditions | refractive index
[1], 298.15 K | 1.35929

[2], 298.15 K, 101 kPa
Conditions | mass density [kg/m3] | speed of sound [m/s]
– | 785.33 | 1144

CCO [ethanol] + CCCn1cc[n+](C)c1.O=S(=O)([N-]S(=O)(=O)C(F)(F)F)C(F)(F)F
x1 = 1
Conditions | mass density [kg/m3] | refractive index | speed of sound [m/s]
[3] | – | 1.35929 | –
[4] | 785.33 | – | 1144

CO [methanol]
Conditions | refractive index
[1], 298.15 K | 1.32648

[2], 298.15 K, 101 kPa
Conditions | mass density [kg/m3] | speed of sound [m/s]
– | 786.59 | 1103

CO [methanol] + CCCn1cc[n+](C)c1.O=S(=O)([N-]S(=O)(=O)C(F)(F)F)C(F)(F)F
x1 = 1
Conditions | mass density [kg/m3] | refractive index | speed of sound [m/s]
[3] | – | 1.32648 | –
[4] | 786.59 | – | 1103

CCCO [propan-1-ol]
Conditions | refractive index
[1], 298.15 K | 1.38307

[2], 298.15 K, 101 kPa
Conditions | mass density [kg/m3] | speed of sound [m/s]
– | 800.09 | 1207

CCCO [propan-1-ol] + CCCn1cc[n+](C)c1.O=S(=O)([N-]S(=O)(=O)C(F)(F)F)C(F)(F)F
x1 = 1
Conditions | mass density [kg/m3] | refractive index | speed of sound [m/s]
[3] | – | 1.38307 | –
[4] | 800.09 | – | 1207

CC(C)O [propan-2-ol]
Conditions | refractive index
[1], 298.15 K | 1.375

[2], 298.15 K, 101 kPa
Conditions | mass density [kg/m3] | speed of sound [m/s]
– | 780.98 | 1139

CC(C)O [propan-2-ol] + CCCn1cc[n+](C)c1.O=S(=O)([N-]S(=O)(=O)C(F)(F)F)C(F)(F)F
x1 = 1
Conditions | mass density [kg/m3] | refractive index | speed of sound [m/s]
[3] | – | 1.375 | –
[4] | 780.98 | – | 1139

Source: the NIST ThermoML archive (doi:10.1016/j.jct.2011.08.028)
